Laboratory results taken from patent US8163779B2, “Glucokinase activators” (Takeda San Diego, Inc., priority 2006, dated 2012).
Counter-ions that a name gives are not always drawn.

Biological target: T1, glucokinase (GK) (Homo sapiens, UniProt P35557)
T1 construct: I.D. No. 1 corresponds to residues 12-465 of glucokinase; made in house; host or cells: E. coli DH10b-T1r
T1 sequence (P35557 with tags, fused parts or gaps isoform P35557-2): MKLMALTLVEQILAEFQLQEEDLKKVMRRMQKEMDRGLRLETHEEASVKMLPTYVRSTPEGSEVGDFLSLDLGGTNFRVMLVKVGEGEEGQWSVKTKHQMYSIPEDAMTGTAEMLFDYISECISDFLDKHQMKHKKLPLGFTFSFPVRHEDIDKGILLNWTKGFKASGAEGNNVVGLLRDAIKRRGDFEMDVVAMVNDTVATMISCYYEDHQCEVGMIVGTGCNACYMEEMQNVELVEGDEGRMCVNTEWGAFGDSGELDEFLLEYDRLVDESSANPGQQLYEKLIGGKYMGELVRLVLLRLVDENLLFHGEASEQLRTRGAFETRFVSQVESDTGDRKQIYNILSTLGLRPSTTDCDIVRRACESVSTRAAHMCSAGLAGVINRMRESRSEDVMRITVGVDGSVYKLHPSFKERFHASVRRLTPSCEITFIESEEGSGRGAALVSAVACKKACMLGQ
Experiment: enzymatic glucokinase activity assay (ATP consumption, KinaseGlo luminescence)
Format: biochemical
Settings: recombinant GK residues 12-465; 5 μM ATP, 5 mM Glucose; Kact = concentration that displays 50% of the maximal increase in GK activity; read-out: pKact
Procedure, shortened: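 Recombinant human glucokinase expressed in E. coli was run in 25 mM Hepes pH 7.2 with 10 mM MgCl2, 1 mM DTT, 5 μM ATP, 5 mM glucose and 2% DMSO for 60 min at room temperature. Remaining ATP was read by KinaseGlo luminescence; pKact came from non-linear curve fits.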

EC50 [µM]	Compound
< 1.58	O=C(Nc1nccs1)C(CC1CCCCC1)n1ccc(S(=O)(=O)C2CCCC2)cc1=O (centres unmarked) [Example 8, 3-cyclohexyl-2-(4-(cyclopentylsulfonyl)-2-oxopyridin-1(2H)-yl)-N-(thiazol-2-yl)propanamide trifluoroacetic acid salt]
> 15.8	O=C(Nc1nc2ccc(O)cc2s1)C(CC1CCOCC1)n1ccc(S(=O)(=O)C2CC2)cc1=O (centres unmarked) [Example 84, 2-(4-(cyclopropylsulfonyl)-2-oxopyridin-1(2H)-yl)-N-(6-hydroxybenzo[d]thiazol-2-yl)-3-(tetrahydro-2H-pyran-4-yl)propanamide]
